The conditions of data set [1]: cited from earlier work.
For data set [2], the system named is human liver microsomes.
Data set [3] has as its system human liver microsomes. The experiment in a line: Chemical inhibition of GLB metabolite formation in human liver microsomes. Particulars: GLB 1.25 μM; for effect on the formation of any of the four metabolites (M1, M2b, M4, M5): SUL […], QUI 0.45 μM, TTEPA 20 μM. (In general: Liver microsomes are vesicles of endoplasmic reticulum, rich in cytochrome P450 enzymes.)
The conditions of data set [4]: cited from earlier work. The source holds these as a separate data set.
The conditions of data set [5]: read-out: apparent Km values for GLB metabolism; cited from earlier work.
The next data set relates to CYP3A. As to conditions: cited from earlier work.
In a further data set the test system is CYP2C19. Particulars: cited from earlier work.
Substrate in data set [6]: COc1ccc(Cl)cc1C(=O)NCCc1ccc(S(=O)(=O)NC(=O)NC2CCCCC2)cc1
The experiment in a line: cells, lysate or membranes named. As to conditions: substrate depletion, 37.0 °C.

The mark [7] stands for this setting: value stated to be within the range.
Setting [8] is: 1 μM ketoconazole, no inhibitor = 100%.
Setting [9] is: 4 μM montelukast, no inhibitor = 100%.
The mark [10] stands for this setting: other: CYP3A5 supersomes 30 pmol/ml.
Setting [11] is: other: CYP2C8 supersomes 40 pmol/ml.
Setting [12] is: other: CYP2C19 supersomes 30 pmol/ml.

One may read the Km as the concentration of substrate that gives half-maximal velocity. Usually Ki stands for the dissociation constant of the complex between target and ligand, obtained from inhibition or displacement. In general, kcat refers to the number of substrate molecules converted per active site and unit of time at saturation. The term kcat/Km denotes the turnover number divided by the Michaelis constant.

For `COc1ccc(Cl)cc1C(=O)NCCc1ccc(S(=O)(=O)NC(=O)N[C@H]2CCC[C@@H](O)C2)cc1` (relative stereo) [M2b, 3-cis-hydroxycyclohexyl glyburide (axial)], the pharmacological activity result in data set [1] is on record as “pharmacologically active”. Besides, in the data set on human liver microsomes [2], the “peak area of metabolite as % of that of M5” value is around 43%.
Take `COc1ccc(Cl)cc1C(=O)NCCc1ccc(S(=O)(=O)NC(=O)N[C@@H]2CCCC[C@H]2O)cc1` (relative stereo) [M4, 2-trans-hydroxycyclohexyl glyburide]: the “peak area of metabolite as % of that of M5” value in the data set with human liver microsomes [2] is on record as around 8%.
As for `COc1ccc(Cl)cc1C(=O)NCCc1ccc(S(=O)(=O)NC(=O)N[C@H]2CC[C@H](O)CC2)cc1` [M1, 4-trans-hydroxycyclohexyl glyburide], the pharmacological activity entry in data set [1] is listed as “pharmacologically active”. Also, in the data set on human liver microsomes [2], the “peak area of metabolite as % of that of M5” value was “approximately 56%”.
As to `COc1ccc(Cl)cc1C(=O)NCCc1ccc(S(=O)(=O)NC(=O)NC2CCCC(O)C2)cc1` (stereo not drawn) [M3, 3-trans-hydroxycyclohexyl glyburide], the “peak area of metabolite as % of that of M5” value with human liver microsomes [2] is reported as around 16%.
As to `Nc1ccc(S(=O)(=O)Nc2ccnn2-c2ccccc2)cc1` [Sulfaphenazole, sulfaphenazole], the “effect on the formation of any of the four metabolites (M1, M2b, M4, M5)” value (“effect on the formation” for short) in the data set with human liver microsomes [3] was “no significant effects”.
As to `COc1ccc(Cl)cc1C(=O)NCCc1ccc(S(=O)(=O)NC(=O)NC2CCCCC2)cc1` [glyburide, Glyburide], the peak plasma concentration result in data set [4] (after a single oral dose of 20 mg GLB) is recorded as “approximately 1.25 μM”. Also, in data set [4] (setting [7]), the “free therapeutic plasma concentration” value is reported as “approximately 1.25 nM” and the “total therapeutic plasma concentration” value is around 0.125 µM. In addition, in data set [5], the Michaelis-Menten constant (Km) is 5 to 11 µM.
In the case of `CC(=O)N1CCN(c2ccc(OCC3COC(Cn4ccnc4)(c4ccc(Cl)cc4Cl)O3)cc2)CC1` (stereo not drawn) [ketoconazole], in the data set with human liver microsomes [3] (setting [8]), the “formation of M1, % of the controls” value is reported as “approximately 60%”; the “formation of M4, % of the controls” value is around 5%; the “formation of M5, % of the controls” value was around 4%. Moreover, the inhibition constant Ki in the data set on CYP3A was […].
On to `CC(C)(O)c1ccccc1CC[C@@H](SCC1(CC(=O)O)CC1)c1cccc(/C=C/c2ccc3ccc(Cl)cc3n2)c1` [montelukast], for which, in the data set on human liver microsomes [3] (setting [9]), the “formation of M1, % of the controls” value is “approximately 50%” and the “formation of M4, % of the controls” value is reported as around 65%.
As to `COc1ccc2[nH]c([S+]([O-])Cc3ncc(C)c(OC)c3C)nc2c1` (stereo not drawn) [omeprazole], the Ki with CYP2C19 is 3 µM.
Regarding `C=C[C@H]1C[N@@]2CC[C@H]1C[C@@H]2[C@@H](O)c1ccnc2ccc(OC)cc12` [quinidine], the “effect on the formation” value with human liver microsomes [3] is recorded as “no significant effects”.
For `S=P(N1CC1)(N1CC1)N1CC1` [thioTEPA, triethylenethiophosphoramide], the “effect on the formation” value in the data set on human liver microsomes [3] is “no significant effects”.
Turning to “an ethyl hydroxycyclohexyl glyburide [M5]”, the “relative metabolite formation in human liver microsome incubations” value with human liver microsomes [2] is recorded as “major metabolite formed”.

B1: human CYP3A5 (Homo sapiens) (protein)
chain: MDLIPNLAVETWLLLAVSLVLLYLYGTRTHGLFKRLGIPGPTPLPLLGNVLSYRQGLWKFDTECYKKYGKMWGTYEGQLPVLAITDPDVIRTVLVKECYSVFTNRRSLGPVGFMKSAISLAEDEEWKRIRSLLSPTFTSGKLKEMFPIIAQYGDVLVRNLRREAEKGKPVTLKDIFGAYSMDVITGTSFGVNIDSLNNPQDPFVESTKKFLKFGFLDPLFLSIILFPFLTPVFEALNVSLFPKDTINFLSKSVNRMKKSRLNDKQKHRLDFLQLMIDSQNSKETESHKALSDLELAAQSIIFIFAGYETTSSVLSFTLYELATHPDVQQKLQKEIDAVLPNKAPPTYDAVVQMEYLDMVVNETLRLFPVAIRLERTCKKDVEINGVFIPKGSMVVIPTYALHHDPKYWTEPEEFRPERFSKKKDSIDPYIYTPFGTGPRNCIGMRFALMNMKLALIRVLQNFSFKPCKETQIPLKLDTQGLLQPEKPIVLKVDSRDGTLSGE
For the molecule B1, in data set [6] (setting [10]), the Michaelis constant (Km) was found to be 4.2 ± 1.5 µM, the kcat is 0.0317 ± 0.0122 s⁻¹ and the catalytic efficiency (kcat/Km) was found to be 7670 ± 833 M⁻¹ s⁻¹.

B2: human CYP2C8 (Homo sapiens) (protein)
chain: MEPFVVLVLCLSFMLLFSLWRQSCRRRKLPPGPTPLPIIGNMLQIDVKDICKSFTNFSKVYGPVFTVYFGMNPIVVFHGYEAVKEALIDNGEEFSGRGNSPISQRITKGLGIISSNGKRWKEIRRFSLTTLRNFGMGKRSIEDRVQEEAHCLVEELRKTKASPCDPTFILGCAPCNVICSVVFQKRFDYKDQNFLTLMKRFNENFRILNSPWIQVCNNFPLLIDCFPGTHNKVLKNVALTRSYIREKVKEHQASLDVNNPRDFIDCFLIKMEQEKDNQKSEFNIENLVGTVADLFVAGTETTSTTLRYGLLLLLKHPEVTAKVQEEIDHVIGRHRSPCMQDRSHMPYTDAVVHEIQRYSDLVPTGVPHAVTTDTKFRNYLIPKGTTIMALLTSVLHDDKEFPNPNIFDPGHFLDKNGNFKKSDYFMPFSAGKRICAGEGLARMELFLFLTTILQNFNLKSVDDLKNLNTTAVTKGIVSLPPSYQICFIPV
As to B2, in data set [6] (setting [11]), the Km was found to be 7.7 ± 2.3 µM, the catalytic constant (kcat) turned out to be 0.0417 ± 0.0133 s⁻¹ and the kcat/Km is 5330 ± 500 M⁻¹ s⁻¹.

B3: human CYP2C19 (Homo sapiens) (protein)
chain: MDPFVVLVLCLSCLLLLSIWRQSSGRGKLPPGPTPLPVIGNILQIDIKDVSKSLTNLSKIYGPVFTLYFGLERMVVLHGYEVVKEALIDLGEEFSGRGHFPLAERANRGFGIVFSNGKRWKEIRRFSLMTLRNFGMGKRSIEDRVQEEARCLVEELRKTKASPCDPTFILGCAPCNVICSIIFQKRFDYKDQQFLNLMEKLNENIRIVSTPWIQICNNFPTIIDYFPGTHNKLLKNLAFMESDILEKVKEHQESMDINNPRDFIDCFLIKMEKEKQNQQSEFTIENLVITAADLLGAGTETTSTTLRYALLLLLKHPEVTAKVQEEIERVIGRNRSPCMQDRGHMPYTDAVVHEVQRYIDLIPTSLPHAVTCDVKFRNYLIPKGTTILTSLTSVLHDNKEFPNPEMFDPRHFLDEGGNFKKSNYFMPFSAGKRICVGEGLARMELFLFLTFILQNFNLKSLIDPKDLDTTPVVNGFASVPPFYQLCFIPV
On to B3, for which, in data set [6] (setting [12]), the Km came to 15.1 ± 2.3 µM, the kcat was determined as 0.16 ± 0.025 s⁻¹ and the kcat/Km stood at 10500 ± 333 M⁻¹ s⁻¹.

Values taken from PMC3172044 (Biopharmaceutics & drug disposition, 2010).
